{
  "source": "paper PMC7182274",
  "about": "(PLoS Pathogens, 2020)",
  "key": {"ΔNClpB": {"molecular_target": "T1, ΔNClpB (Francisella tularensis, UniProt A0Q8N0)", "T1 construct": "gene clpB"}, "[1]": {"molecular_target": "F. novicida DnaK (F. novicida)"}},
  "data": [
    {"molecule": "Nc1ncnc2c1ncn2[C@@H]1O[C@H](COP(=O)(O)OP(=O)(O)OP(=O)(O)O)[C@@H](O)[C@H]1O", "note": "[ATP]", "values": [
      {"measurement": "ATPase activity", "setting": "ΔNClpB", "value": "ΔNClpB had a slightly increased basal ATPase activity in the absence of casein"}
    ]},
    {"molecule": "F. novicida ClpB (wild-type) (natural protein)", "values": [
      {"measurement": "refolding of urea-denatured firefly luciferase with DnaK, DnaJ, GrpE and ATP", "setting": "[1]", "value": 83, "unit": "%"}
    ]}
  ]
}
